From publication PMC3407089, “Influence of GABAA Receptor α Subunit Isoforms on the Benzodiazepine Binding Site” (PLoS ONE, 2012)
Where two headings read alike, the source gives them in different places.

Assays:
[1] = biological target: α1S204Cβ2γ2 GABAA receptor; test: Covalent reaction of 3-NCS at the binding level (residual radioligand binding, HEK293 membranes); set-up: key: n.r.: no covalent reaction; details: 3-NCS 30 min on ice, washed; residual [^3H]Ro15–1788 binding
Description: (§1) cDNAs coding for the αx (x = 1, 2, 3, 6), β2, and γ2S subunits DNA (20 µg : 20 µg : 20 µg) per 9 cm diameter dish were transfected in human embryonic kidney (HEK) 293 cells (American Type of Culture Collection, MD, USA, CRL 1573) using the calcium phosphate precipitation technique. For α5 containing receptors β2 was replaced by β1. […] Culturing of cells and membrane preparation were done as described before.
(§2) As detailed in previous work, [30], [33] this procedure included three steps: incubation of membranes expressing recombinant wild type or mutant receptors with the reactive agent followed by extensive washing of the membranes in order to remove non-reacted compound and a radioactive ligand binding assay to determine residual binding. No covalent reaction would result in 100% residual binding, and 100% covalent reaction would result in 0% residual binding.
(§3) Briefly, the membranes were re-suspended in phosphate buffer (100 mM KCl, 10 mM KH2PO4, 0.1 mM EDTA, pH 7.4) using a Glass/Teflon homogenizer. 0.1–1.0 mg/mL of protein were incubated in a total volume of 360 µL with either 10 µM (determination of degree of covalent reaction) or several concentrations of 3-NCS for 30 min on ice. Membranes were collected with rapid filtration on a round 7 mm diameter glass fiber filter (GF/C; Whatman) that was placed on a round 24 mm diameter glass fiber filter (GF/C; Whatman), both pre-washed with phosphate buffer. […] Radioactivity was determined by liquid scintillation counting. Non-specific binding was determined in the presence of 100 µM Ro 15–1788. In control experiments, washing efficiency was estimated by placing radioactivity on the small filter. More than 99.95% of the radioactivity was removed (not shown).
(§4) Concentration response curves for 3-NCS were fitted with the equation C(c) = Cmax/(1+(EC50/c)), where c is the concentration of 3-NCS, EC50 the concentration of 3-NCS where half maximal covalent reaction was observed, Cmax is the maximal extent of the covalent reaction and C the measured extent of the covalent reaction.

[2] = biological target: α6N204Cβ2γ2 GABAA receptor; test: as above; set-up: key: n.r.: no covalent reaction; details: 3-NCS 30 min on ice, washed; [^3H]15–4513 as radioactive ligand
Description: as §1, §2, §3, §4

[3] = biological target: α6S203Cβ2γ2 GABAA receptor; test: as above; set-up: key: n.r.: no covalent reaction; details: 3-NCS 30 min on ice, washed; [^3H]15–4513 as radioactive ligand
Description: as §1, §2, §3, §4

[4] = biological target: α1S205Cβ2γ2 GABAA receptor (Rattus norvegicus, UniProt P18508+P62813, S232C); test: Covalent reaction at the functional level (two-electrode voltage clamp, Xenopus oocytes); format: cell-based; details: after 10 µM 3-NCS and removal of non-covalently reacted 3-NCS; read-out: % allosteric modulation, 3-NCS
Chain of α1S205Cβ2γ2 GABAA receptor (P62813 28-455 S232C): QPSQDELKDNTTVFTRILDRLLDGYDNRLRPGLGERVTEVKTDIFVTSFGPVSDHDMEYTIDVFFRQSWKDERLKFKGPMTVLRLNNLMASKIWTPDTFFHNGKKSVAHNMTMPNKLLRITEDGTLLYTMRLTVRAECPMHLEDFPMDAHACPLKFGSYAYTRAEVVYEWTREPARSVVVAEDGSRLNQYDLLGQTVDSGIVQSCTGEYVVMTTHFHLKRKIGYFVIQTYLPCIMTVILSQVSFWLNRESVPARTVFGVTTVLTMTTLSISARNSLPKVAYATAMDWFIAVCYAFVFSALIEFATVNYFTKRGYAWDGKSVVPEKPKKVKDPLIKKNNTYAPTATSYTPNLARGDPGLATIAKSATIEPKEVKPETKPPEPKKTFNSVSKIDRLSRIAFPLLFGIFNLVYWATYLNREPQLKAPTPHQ
Chain of α1S205Cβ2γ2 GABAA receptor (P18508 39-466): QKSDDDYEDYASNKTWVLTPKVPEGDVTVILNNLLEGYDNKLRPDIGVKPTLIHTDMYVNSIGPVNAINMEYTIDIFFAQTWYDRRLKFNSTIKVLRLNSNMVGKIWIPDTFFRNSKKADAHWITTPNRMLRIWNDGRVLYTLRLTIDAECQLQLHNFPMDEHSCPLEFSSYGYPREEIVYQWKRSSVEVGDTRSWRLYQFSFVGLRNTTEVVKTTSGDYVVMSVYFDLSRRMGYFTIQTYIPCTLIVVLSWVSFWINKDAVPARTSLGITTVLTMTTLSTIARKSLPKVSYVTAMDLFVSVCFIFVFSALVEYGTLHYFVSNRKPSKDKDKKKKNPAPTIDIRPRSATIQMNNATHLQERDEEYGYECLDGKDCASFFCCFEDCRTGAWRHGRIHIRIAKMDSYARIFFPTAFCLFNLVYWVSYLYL
Chain of α1S205Cβ2γ2 GABAA receptor (P63138 26-474 partner): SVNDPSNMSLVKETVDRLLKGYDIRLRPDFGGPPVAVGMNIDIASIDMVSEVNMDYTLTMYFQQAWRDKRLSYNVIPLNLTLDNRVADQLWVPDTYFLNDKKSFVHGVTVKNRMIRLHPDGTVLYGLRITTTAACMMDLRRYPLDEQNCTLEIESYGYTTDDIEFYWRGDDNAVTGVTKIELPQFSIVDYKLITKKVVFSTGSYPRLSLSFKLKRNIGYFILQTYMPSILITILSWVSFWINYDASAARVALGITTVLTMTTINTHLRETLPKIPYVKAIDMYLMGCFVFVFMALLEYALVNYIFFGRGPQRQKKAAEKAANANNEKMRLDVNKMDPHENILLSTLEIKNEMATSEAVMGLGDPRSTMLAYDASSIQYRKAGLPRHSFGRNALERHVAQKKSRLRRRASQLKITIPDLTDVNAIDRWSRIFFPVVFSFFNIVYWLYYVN
Description: (§5) Capped cRNAs were synthesized (Ambion, Austin, TX, USA) from the linearized plasmids with a cytomegalovirus promotor (pCMVvectors) containing the different subunits, respectively. A poly-A tail of about 400 residues was added to each transcript using yeast poly- A polymerase (United States Biologicals, Cleveland, OH, USA). The concentration of the cRNA was quantified on a formaldehyde gel using Radiant Red stain (Bio-Rad) for visualization of the RNA. Known concentrations of RNA ladder (Invitrogen) were loaded as standard on the same gel. cRNAs were precipitated in ethanol/isoamylalcohol 19∶ 1, the dried pellet dissolved in water and stored at −80°C. cRNA mixtures were prepared from these stock solutions and stored at −80°C. Xenopus laevis oocytes were prepared, injected and defolliculated as described previously, [39]. They were injected with 50 nL of the cRNA solution containing wild type or mutated α1 or α2, α3, α5, α6 and wild type β2 and γ2 subunits at a concentration of 10 nM : 10 nM : 50 nM [40] and then incubated in modified Barth’s solution at +18°C for at least 24 h before the measurements.
(§6) Tests with a model oocyte were performed to ensure linearity in the larger current range.
(§7) Electrophysiological experiments were performed by using the two-electrode voltage clamp method at a holding potential of −80 mV. The perfusion medium contained 90 mM NaCl, 1 mM KCl, 1 mM MgCl2, 1 mM CaCl2, and 5 mM Na-HEPES (pH 7.4) and was applied by gravity flow 6 ml/min. The perfusion medium was applied through a glass capillary with an inner diameter of 1.35 mm, the mouth of which was placed about 0.4 mm from the surface of the oocyte. Allosteric modulation via the benzodiazepine site was measured at a GABA concentration eliciting 2–5% of the maximal GABA current amplitude.

[5] = biological target: α1T206Cβ2γ2 GABAA receptor (Rattus norvegicus, UniProt P18508+P62813, T233C); test: as above; format: cell-based; details: after 10 µM 3-NCS and removal of non-covalently reacted 3-NCS; read-out: % allosteric modulation, 3-NCS
Chain of α1T206Cβ2γ2 GABAA receptor (P62813 28-455 T233C): as the sequence (P62813 28-455 S232C) above, with C205S, T206C counted along it
Chain of α1T206Cβ2γ2 GABAA receptor (P18508 39-466): as the sequence (P18508 39-466) above
Chain of α1T206Cβ2γ2 GABAA receptor (P63138 26-474 partner): as the sequence (P63138 26-474 partner) above
Description: as §5, §6, §7

[6] = biological target: α2S204Cβ2γ2 GABAA receptor (Rattus norvegicus, UniProt P18508+P23576, S232C); test: as above; format: cell-based; details: after 10 µM 3-NCS and removal of non-covalently reacted 3-NCS; read-out: % allosteric modulation, 3-NCS
Chain of α2S204Cβ2γ2 GABAA receptor (P23576 29-451 S232C): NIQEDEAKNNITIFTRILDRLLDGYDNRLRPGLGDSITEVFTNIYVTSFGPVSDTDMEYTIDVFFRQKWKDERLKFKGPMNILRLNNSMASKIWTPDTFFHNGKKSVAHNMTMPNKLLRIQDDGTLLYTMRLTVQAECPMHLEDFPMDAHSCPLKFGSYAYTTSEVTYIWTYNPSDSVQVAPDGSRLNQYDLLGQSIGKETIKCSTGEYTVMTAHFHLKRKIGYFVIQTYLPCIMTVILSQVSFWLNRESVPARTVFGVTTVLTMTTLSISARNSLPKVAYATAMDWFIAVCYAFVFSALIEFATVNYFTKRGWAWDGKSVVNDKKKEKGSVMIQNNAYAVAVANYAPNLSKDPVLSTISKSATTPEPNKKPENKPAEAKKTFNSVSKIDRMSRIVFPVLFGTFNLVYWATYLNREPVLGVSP
Chain of α2S204Cβ2γ2 GABAA receptor (P18508 39-466): as the sequence (P18508 39-466) above
Chain of α2S204Cβ2γ2 GABAA receptor (P63138 26-474 partner): as the sequence (P63138 26-474 partner) above
Description: as §5, §6, §7

[7] = biological target: α2S205Cβ2γ2 GABAA receptor (Rattus norvegicus, UniProt P18508+P23576, S233C); test: as above; format: cell-based; details: after 10 µM 3-NCS and removal of non-covalently reacted 3-NCS; read-out: % allosteric modulation, 3-NCS
Chain of α2S205Cβ2γ2 GABAA receptor (P23576 29-451 S233C): as the sequence (P23576 29-451 S232C) above, with C204S, S205C counted along it
Chain of α2S205Cβ2γ2 GABAA receptor (P18508 39-466, stated change not applied): as the sequence (P18508 39-466) above
Chain of α2S205Cβ2γ2 GABAA receptor (P63138 26-474 partner): as the sequence (P63138 26-474 partner) above
Description: as §5, §6, §7

[8] = biological target: α2T206Cβ2γ2 GABAA receptor (Rattus norvegicus, UniProt P18508+P23576, T234C); test: as above; format: cell-based; details: after 10 µM 3-NCS and removal of non-covalently reacted 3-NCS; read-out: % allosteric modulation, 3-NCS
Chain of α2T206Cβ2γ2 GABAA receptor (P23576 29-451 T234C): as the sequence (P23576 29-451 S232C) above, with C204S, T206C counted along it
Chain of α2T206Cβ2γ2 GABAA receptor (P18508 39-466): as the sequence (P18508 39-466) above
Chain of α2T206Cβ2γ2 GABAA receptor (P63138 26-474 partner): as the sequence (P63138 26-474 partner) above
Description: as §5, §6, §7

α2β2γ2 receptors = biological target: T1, α2β2γ2 receptors (Rattus norvegicus, UniProt P18508+P23576); test: Radioactive ligand binding / displacement of [^3H]Ro 15–1788
T1 construct: expressed in transfected cells; host or cells: HEK293 cells (ATCC CRL 1573), membranes
T1 sequence (P23576 29-451): as the sequence (P23576 29-451 S232C) above, with C204S counted along it
T1 sequence (P63138 25-474 partner limits assumed): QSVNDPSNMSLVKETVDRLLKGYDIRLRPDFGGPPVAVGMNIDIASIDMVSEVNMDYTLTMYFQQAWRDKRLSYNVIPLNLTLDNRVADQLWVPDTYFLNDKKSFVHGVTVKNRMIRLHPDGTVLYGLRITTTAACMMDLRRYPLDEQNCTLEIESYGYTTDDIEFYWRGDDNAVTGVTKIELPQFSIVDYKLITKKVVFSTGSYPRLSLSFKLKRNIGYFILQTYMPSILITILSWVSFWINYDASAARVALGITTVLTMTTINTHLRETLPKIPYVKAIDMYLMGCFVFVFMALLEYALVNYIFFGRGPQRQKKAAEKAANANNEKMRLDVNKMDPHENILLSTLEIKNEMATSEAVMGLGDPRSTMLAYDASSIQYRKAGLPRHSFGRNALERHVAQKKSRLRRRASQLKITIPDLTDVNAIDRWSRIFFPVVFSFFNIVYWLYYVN
T1 sequence (P18508 39-466): as the sequence (P18508 39-466) above
Description: For α5 containing receptors β2 was replaced by β1. […] Culturing of cells and membrane preparation were done as described before.
The properties of the recombinant mutant receptors were only estimated. For this affinity estimate, membranes were re-suspended in phosphate buffer using a Teflon homogenizer. […] The final protein concentration was 0.1–1 mg of protein/ml. […] Membranes were collected by rapid vacuum filtration on GF/C filters. After three washing steps (3 sec each) with 5 ml of phosphate buffer, the filter-retained radioactivity was determined by liquid scintillation counting.

[9] = biological target: wild-type α1β2γ2 receptors; set-up: method as in PMID 19804380; details: cited from earlier work
α5β1γ2 receptors = α5β1γ2 receptors (Rattus norvegicus, UniProt P18508+P19969); test: biochemical
Chain of α5β1γ2 receptors (P19969 32-464 limits assumed): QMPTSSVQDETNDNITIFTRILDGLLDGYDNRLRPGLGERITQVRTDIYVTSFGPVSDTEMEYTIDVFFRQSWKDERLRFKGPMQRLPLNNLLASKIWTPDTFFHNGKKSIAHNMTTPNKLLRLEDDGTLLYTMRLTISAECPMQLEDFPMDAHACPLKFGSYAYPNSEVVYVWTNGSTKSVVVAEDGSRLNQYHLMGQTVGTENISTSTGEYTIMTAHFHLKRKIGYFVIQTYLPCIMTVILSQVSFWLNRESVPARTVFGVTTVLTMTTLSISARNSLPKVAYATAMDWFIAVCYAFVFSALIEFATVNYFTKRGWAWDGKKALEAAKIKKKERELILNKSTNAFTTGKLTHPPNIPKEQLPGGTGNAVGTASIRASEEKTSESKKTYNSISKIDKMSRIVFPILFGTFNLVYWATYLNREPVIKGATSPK
Chain of α5β1γ2 receptors (P15431 26-474 partner): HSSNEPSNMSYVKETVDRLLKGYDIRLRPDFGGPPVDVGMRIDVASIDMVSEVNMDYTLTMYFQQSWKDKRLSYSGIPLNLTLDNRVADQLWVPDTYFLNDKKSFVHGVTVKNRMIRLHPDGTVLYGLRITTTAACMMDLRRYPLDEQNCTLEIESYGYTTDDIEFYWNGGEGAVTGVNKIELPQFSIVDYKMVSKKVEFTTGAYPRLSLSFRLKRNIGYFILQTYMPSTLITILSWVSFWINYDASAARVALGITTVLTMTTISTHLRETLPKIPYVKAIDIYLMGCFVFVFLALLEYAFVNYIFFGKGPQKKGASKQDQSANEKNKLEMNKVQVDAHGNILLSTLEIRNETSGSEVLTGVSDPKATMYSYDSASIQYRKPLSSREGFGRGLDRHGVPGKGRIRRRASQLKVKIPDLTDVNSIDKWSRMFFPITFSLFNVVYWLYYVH
Chain of α5β1γ2 receptors (P18508 39-466): as the sequence (P18508 39-466) above
Description: Culturing of cells and membrane preparation were done as described before [30].

Question: Which “EC50 of the covalent reaction” value [1] does the source give for CN1C(=O)C(N=C=S)N=C(c2ccccc2)c2cc([N+](=O)[O-])ccc21 (stereo not drawn) [3-NCS] here?
Answer: Its value is “n.r”.

Question: What about the “EC50 of the covalent reaction” value [2] of the same compound?
Answer: The value was “n.r. ^a”.

Question: What about the “EC50 of the covalent reaction” value [3] of the same compound?
Answer: Its value is “n.r. ^a”.

Question: And the activation at 10 µM [4]?
Answer: The activation at 10 µM was 60 ± 43%.

Question: What about the activation at 10 µM [5] of the same compound?
Answer: The activation at 10 µM was 119 ± 51%.

Question: What about the activation at 10 µM [6] of the same compound?
Answer: The activation at 10 µM was 1 ± 10%.

Question: What about the activation at 10 µM [7] of the same compound?
Answer: The activation at 10 µM was 35 ± 10%.

Question: What about the activation at 10 µM [8] of the same compound?
Answer: Its activation at 10 µM is 53 ± 29%.

Question: What about the Ki (α2β2γ2 receptors) of the same compound?
Answer: Its Ki is 1550 ± 250 nM.

Question: What about the Ki ([9]; radioligand [^3H]Ro15–1788, read-out: Ki, displacement of [^3H]Ro15–1788) of the same compound?
Answer: The Ki was 340 ± 16 nM.

Question: And the Ki ([9]; radioligand [^3H]flunitrazepam, read-out: Ki, displacement of [^3H]flunitrazepam)?
Answer: The Ki was 240 ± 55 nM.

Question: And the Ki (α5β1γ2 receptors)?
Answer: Its Ki is 9840 ± 1480 nM.
